From patent US20250228865A1, “COMPOUNDS FOR ENHANCING READ THROUGH OF GENES CONTAINING PREMATURE TERMINATION CODONS AND METHODS FOR MAKING AND USING THE SAME” (Sanofi US Services Inc., priority 2022, published 2025)
Values joined by “and” are separate entries in the source; they are usually repeats but may differ in a detail not shown here. Equal values may be shown once.

Columns and labels:
[1] = system: CFTR G542X; experiment: Functional CFTR channel activity, TECC-24 electrophysiology, 16HBE cells (CFTR G542X readthrough); format: cell-based, human
Description: (§1) 16HBE human bronchial epithelial cells were seeded onto Transwell 24-well filter inserts coated with human collagen type IV. Cells were seeded 7 days prior to functional testing at a density of 1.7×10^5 cells onto the “apical” chamber filter of the Transwell insert. Cells were grown as submerged cultures (200 μL apical/700 μL basolateral) in Minimal Essential Medium (MEM) containing 10% qualified Fetal Bovine Serum and 1% Penicillin/Streptomycin and incubated at 37° C. and 5% CO2. Growth media on cells was replenished with fresh media every 1-3 days prior to test agent treatment day. After 7 days in culture, the CFTR-mediated chloride (Cl^−) equivalent current (Ieq) of the 16HBE cells was recorded, which may typically form electrically tight epithelia with a transepithelial resistance (Rt) of 2000-6000 Ω·cm2 as described below. Forty-eight hours prior to electrophysiological measurements, fresh growth media containing the test agents was applied to both chambers separating filter bound epithelial monolayer.
(§2) On the day of electrophysiology studies, electrodes of a “Multi-(24-channel) transepithelial current clamp amplifier” (MTECC-24 (TECC-24 for short), EP Devices, Belgium) were soaked in an assay buffer (see below for composition) for at least 2 hours using 24-well Transwell plates without inserts. Cell culture media was replaced in the Transwell assay plates with assay buffer (see below) and the plates were mounted onto a custom-built automated robotic assay platform (Yamaha RCX240S controller) with heated plate holders set at 37° C. for 60 min. After equilibration, transepithelial potential difference (PD) and resistance (Rt) was monitoredat ˜5 min intervals using the TECC-24 transepithelial current clamp. Electrode potential differences were monitored for each pair of Ag/AgCl voltage electrodes by taking voltage measurements from a control (“blank”) plate with matching buffer solutions and 16HBE cells that were not treated with any test agent. PD values for each electrode pair were subtracted from the blank plate from that of the test plates at each time point. Ieq was calculated from the corrected PD values and Rt using Ohm's law. Ieq values were slope corrected to account for measurement drift over time using the equation: Slope corrected value=calculated Ieq−((time x slope)+y-intercept) with the slope and y-intercept calculated from the data points captured during the initial baseline period and following addition of the CFTR inhibitor.
(§3) The equivalent current (Ieq) traces associated with CFTR channel activation were plotted as baseline subtracted mean±standard deviation from 3-4 separate wells on the 24-well Transwell (n=3-4). There are 4 recording periods, with the first set of data points recorded baseline Ieq currents prior to sequential activation of available CFTR channels with forskolin (10 μM) and then in combination with potentiator VX-770/ivacaftor (1 μM). Recorded the last set of data points in the presence of CFTR inhibitor CFTRinh-172 (20 μM) to confirm that currents are mediated via activation of CFTR channels. The test agents and control/reference compounds were pre-diluted to 10-fold concentrations in assay buffer and added manually using a multi-channel pipette to both the basolateral and apical side of the membrane (test plates only). Employed CFTR-mediated changes in Ieq, (i.e. forskolin/VX-770 activated currents) to measure functional CFTR surface expression or treatment-related functional rescue of mutant CFTR.
(§4) The magnitude of test agent mediated enhancement of functional CFTR currents was calculated by comparing forskolin/VX-770 stimulated Ieq relative to baseline/CFTRinh-172 Ieq following 48 hour pretreatment with test agent(s) and normalizing to the forskolin/VX-770 stimulated Ieq determined following 48 hour pretreatment with a maximally effective concentration a reference control aminoglycoside agent (typically 110 μM G418). […]

[2] = system: CFTR R1162X; experiment: Functional CFTR channel activity, TECC-24 electrophysiology, 16HBE cells (CFTR R1162X readthrough); format: cell-based, human
Description: as §1, §2, §3, §4

[3] = system: recombinant human CFTR carrying the premature stop codon (PTC) mutation G542X; experiment: CFTR-PTC mutant translation readthrough, Nanoluc tagged CFTR luminescence (G542X cell line); format: cell-based; conditions: 10 μM G418 alone; 48 hours; cell line (G542X or R1162X) not specified
Procedure, shortened: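 Readthrough is the 48 h compound-induced luminescence increase scaled to that of maximal G418 (125-250 μM). Compounds run from 50 μM final in 2-fold steps, ±10 μM G418, on 16HBE lines carrying Nanoluc-tagged CFTR G542X (extracellular loop 4 tag) or R1162X (C-terminal tag), with 3 μM VX-809 present.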

[4] = RTM conc. —, eRF3 modulator (CC-90009) 1 uM, ELX-02 100 uM
[5] = no RTM, eRF3 modulator (CC-90009) 1 uM, G418 10 uM
[6] = no RTM, eRF3 modulator (CC-90009) 10 uM, G418 10 uM
[7] = no RTM, eRF3 modulator (CC-90009) 1 uM, Paramomycin 2000 uM

Structure (SMILES): C[C@H](N)[C@H]1O[C@@H](OC2C(O)C(N)CC(N)C2OC2OC([C@@H](C)O)C(O)C(O)C2N)C(O)C1O (stereo partly drawn) [ELX-02, reference compound]
- Currents (% of 110 μM G418 (Max effect)) [1, 4]: 191 % of 110 μM G418 (Max effect)
- Currents (% of 110 μM G418 (Max effect)) [2, 4]: 198 % of 110 μM G418 (Max effect)

Structure (SMILES): CN[C@@H]1[C@@H](O)[C@@H](O[C@@H]2[C@@H](O)[C@H](O[C@H]3O[C@H]([C@@H](C)O)[C@@H](O)[C@H](O)[C@H]3N)[C@@H](N)C[C@H]2N)OC[C@]1(C)O [Example G418, G418, reference compound]
- Currents (% of 110 μM G418 (Max effect)) [1, 5]: 130 % of 110 μM G418 (Max effect)
- Currents (% of 110 μM G418 (Max effect)) [1, 6]: 102 % of 110 μM G418 (Max effect)
- Currents (% of 110 μM G418 (Max effect)) [2, 5]: 110 % of 110 μM G418 (Max effect) and 95 % of 110 μM G418 (Max effect)
- Currents (% of 110 μM G418 (Max effect)) [2, 6]: 130 % of 110 μM G418 (Max effect) and 139 % of 110 μM G418 (Max effect)
- response (Nanoluc luminescence) relative to a maximally effective concentration of G418 [3]: approximately 10 % of the response observed with a maximally effective concentration of G418 (typically 125-250 μM)

Structure (SMILES): NC[C@@H]1O[C@H](O[C@H]2[C@@H](O)[C@H](O[C@@H]3[C@@H](O)[C@H](N)C[C@H](N)[C@H]3O[C@H]3O[C@H](CO)[C@@H](O)[C@H](O)[C@H]3N)O[C@@H]2CO)[C@H](N)[C@@H](O)[C@@H]1O [Paramomycin, paramomycin, reference compound]
- Currents (% of 110 μM G418 (Max effect)) [1, 7]: 65 % of 110 μM G418 (Max effect)
- Currents (% of 110 μM G418 (Max effect)) [2, 7]: 55 % of 110 μM G418 (Max effect)

Structure (SMILES): OCc1cn(-c2ncc(OCc3c(Cl)cccc3Cl)cn2)cn1 [drawing 837]
- Currents (% of 110 μM G418 (Max effect)) ([1]; RTM 0.5 uM, no eRF3 modulator, Paramomycin 2000 uM): 5 % of 110 μM G418 (Max effect)

Structure (SMILES): OCc1cn(-c2ncc(OCc3c(Cl)cccc3Cl)cn2)cn1 [drawing 838]
- Currents (% of 110 μM G418 (Max effect)) ([1]; RTM 0.5 uM, eRF3 modulator (CC-90009) 1 uM, Paramomycin 2000 uM): 140 % of 110 μM G418 (Max effect)

Structure (SMILES): Cc1cccc(C(F)(F)F)c1COc1ccc(N2CC(CO)OC2=O)cc1 (stereo not drawn) [drawing 839]
- Currents (% of 110 μM G418 (Max effect)) ([1]; RTM 1 uM, no eRF3 modulator, G418 10 uM): 76 % of 110 μM G418 (Max effect)

Structure (SMILES): Cc1cccc(C(F)(F)F)c1COc1ccc(N2CC(CO)OC2=O)cc1 (stereo not drawn) [drawing 840]
- Currents (% of 110 μM G418 (Max effect)) ([1]; RTM 1 uM, eRF3 modulator (CC-90009) 1 uM, G418 10 uM): 290 % of 110 μM G418 (Max effect)

Structure (SMILES): O=C1O[C@H](CO)CN1c1ccc(OCc2c(Cl)cccc2Cl)cc1 [drawing 841]
- Currents (% of 110 μM G418 (Max effect)) ([1]; RTM 5 uM, no eRF3 modulator, G418 10 uM): 54 % of 110 μM G418 (Max effect)

Structure (SMILES): O=C1O[C@H](CO)CN1c1ccc(OCc2c(Cl)cccc2Cl)cc1 [drawing 842]
- Currents (% of 110 μM G418 (Max effect)) ([1]; RTM 5 uM, eRF3 modulator (CC-90009) 10 uM, G418 10 uM): 323 % of 110 μM G418 (Max effect)
